In US20100203084A1, “METHOD FOR TREATING PAIN OR OPIOID DEPENDENCE USING A SPECIFIC TYPE OF NON-OPIOID AGENT IN COMBINATION WITH A SELECTIVE EXCITATORY-OPIOID-RECEPTOR INACTIVATOR” (priority 2006, published 2010):
“Also recorded” adds a separate entry of the source.

Legend:
[1] = system: Swiss-Webster mice; conditions: mouse, in vivo
[2] = system: rodents; conditions: high doses, administered immediately after training, rodents (ref. 20); cited from earlier work
[3] = system: chronic morphine-dependent mice; experiment: naloxone-precipitated withdrawal hyperalgesia in chronic morphine-dependent mice (tail-flick); conditions: naltrexone 0.1 ng/kg with naloxone, FIG. 9
[4] = system: rodents and humans; conditions: moderately low doses (˜1 μg/kg), rodents and humans (refs. 20-22); cited from earlier work
[5] = several species, including rat and human (ref. 20); cited from earlier work

NC(CCC(=O)O)C(=O)O (racemic) [glutamic acid, dl-glutamic acid]
duration of hyperalgesia, glutamic acid alone [1]: > 6 h | effect on tail-flick latencies, glutamic acid alone [1]: long-lasting hyperalgesia

CC(C)Cn1c(=O)n(C)c(=O)c2[nH]cnc21 [IBMX, 3-isobutyl-1-methylxanthine]
effect on memory in passive avoidance tasks [2]: improve memory | duration of hyperalgesia, IBMX alone [1]: > 3 h | effect on tail-flick latencies, IBMX alone [1]: long-lasting hyperalgesia

N[C@@H](CCC(=O)O)C(=O)[O-].[Na+] [MSG, monosodium glutamate]
effect on tail-flick latencies, MSG alone, 10-fold-higher dose [1]: evokes hyperalgesia | effect on tail-flick latencies, MSG alone, lower dose [1]: does not evoke significant hyperalgesia

CN[C@H](CC(=O)O)C(=O)O [NMDA, N-methyl-D-aspartate]
duration of hyperalgesia, NMDA alone [1]: > 5 h | effect on tail-flick latencies, NMDA alone [1]: decreases in tail-flick latencies (indicating hyperalgesia)

O=C1CC[C@@]2(O)[C@H]3Cc4ccc(O)c5c4[C@@]2(CCN3CC2CC2)[C@H]1O5 [NTX, naltrexone]
effect of ultra-low-dose naltrexone cotreatment on naloxone-precipitated withdrawal hyperalgesia [3]: rapidly converted to analgesia | effect of cotreatment with 1 pg/kg rolipram in normal mice [1]: prominent, long-lasting analgesia | effect of delayed high-dose NTX on analgesia from rolipram 1 μg/kg plus CTX-B [1]: rapidly blocked | effect of delayed much higher dose of NTX in MSG + NTX cotreated mice [1]: blocked both hyperalgesia and analgesia | effect of high-dose NTX on analgesia from glutamic acid cotreatment [1]: rapid attenuation of the initially prominent analgesia | effect of high-dose NTX on analgesia from non-narcotic cotreatment [1]: antagonized rapidly | effect of second dose of NTX alone 24 h after initial cotreatment with rolipram 1 μg/kg [1]: evoked significant analgesia | effect of second injection of high-dose NTX on NMDA-evoked hyperalgesia and NMDA+NTX analgesia [1]: rapid attenuation of the initially prominent hyperalgesia | effect of ultra-low-dose NTX co-administered with thousand- to million-fold lower dose of rolipram [1]: remarkable degree of opioid receptor-mediated, long-lasting analgesia | effect of ultra-low-dose NTX cotreatment on hyperalgesia evoked by glutamate, NMDA, IBMX or rolipram [1]: rapidly blocked and reversed to prominent, long-lasting analgesia | effect on tail-flick latencies, cotreatment with 1 mg/kg NMDA [1]: blocked NMDA-evoked hyperalgesia, and resulted in prominent analgesia | effect on tail-flick latencies, cotreatment with 1 mg/kg glutamic acid [1]: blocked glutamic-acid-evoked hyperalgesia, and resulted in prominent analgesia | effect on tail-flick latencies, cotreatment with 10 mg/kg IBMX, high-dose NTX [1]: not only blocked IBMX-evoked hyperalgesia, but also blocked onset of analgesia during the first hour after dosing | effect on tail-flick latencies, cotreatment with MSG 1 mg/kg [1]: Prominent analgesia | effect on tail-flick latencies, cotreatment with rolipram 1 pg/kg [1]: remarkably similar degree of analgesia | effect on tail-flick latencies, cotreatment with rolipram 1 μg/kg [1]: results in prominent analgesia | effect on tail-flick latencies, inactivator alone (control) [1]: no alterations in tail-flick latencies | effect on tail-flick latencies, cotreatment with 10 mg/kg IBMX, ultra-low-dose NTX ([1]; sc): blocked IBMX-evoked hyperalgesia, and resulted in prominent analgesia | effect on tail-flick latencies, cotreatment with 10-fold-higher dose of MSG ([1]; sc): Prominent analgesia

C[C@H](NC(=O)[C@@H](CC(=O)NO)Cc1ccccc1)C(=O)O [kelatorphan]
effect of kelatorphan on analgesic response to 1 pg/kg rolipram plus 0.1 ng/kg NTX [1]: prolongs the duration of the analgesic response | effect on baseline tail-flick latency, kelatorphan alone [1]: does not alter baseline tail-flick latency | effect on tail-flick latencies, kelatorphan 0.1 mg/kg cotreatment with rolipram 1 pg/kg [1]: prominent analgesia | effect on tail-flick latencies, kelatorphan 1 mg/kg cotreatment with rolipram 1 pg/kg [1]: elicits prominent analgesia

Oc1ccc2c3c1O[C@H]1c4[nH]c5c(c4C[C@@]4(O)[C@@H](C2)N(CC2CC2)CC[C@]314)C[C@@]1(O)[C@H]2Cc3ccc(O)c4c3[C@@]1(CCN2CC1CC1)[C@H]5O4 [nor-BNI, nor-binaltorphimine]
effect on tail-flick latencies, ultra-low-dose mu- or kappa-opioid receptor antagonist cotreatment with rolipram [1]: larger magnitude of analgesia

CCOC(=O)C1=C[C@@H](OC(CC)CC)[C@H](NC(C)=O)[C@@H](N)C1 [oseltamivir]
effect of cotreatment with 1 pg/kg rolipram in normal mice [1]: prominent, long-lasting analgesia

COc1ccc(C2CNC(=O)C2)cc1OC1CCCC1 (stereo not drawn) [rolipram]
adverse side-effects [4]: relatively moderate adverse side-effects | effect on memory behavior [4]: significant enhancement in memory behavior | absorption after oral administration [5]: absorbed fully and rapidly | effect on memory in passive avoidance tasks [2]: improve memory | effect on tail-flick latencies, rolipram alone, 1 pg/kg [1]: no detectable hyperalgesic effect; also recorded: does not alter baseline tail-flick latency | effect on tail-flick latencies, rolipram alone, 1 μg/kg [1]: acute hyperalgesic effects | persistence of effect of a single low dose of rolipram [1]: still effective for more than one day

COC(=O)/C=C/C(=O)N[C@@H]1CC[C@@]2(O)[C@H]3Cc4ccc(O)c5c4[C@@]2(CCN3CC2CC2)[C@H]1O5 [β-FNA, β-funaltrexamine]
effect on tail-flick latencies, ultra-low-dose mu- or kappa-opioid receptor antagonist cotreatment with rolipram [1]: block the acute hyperalgesic effects of rolipram and result in prominent analgesia
